Data taken from ChEMBL document CHEMBL1909046, “DrugMatrix in vitro pharmacology data”.

How the values were obtained:
[1] = molecular target: Histamine H2 receptor (Homo sapiens, UniProt P25021); format: cell membranes, CHO-K1, Membrane; also: in other assays of this panel Not Active means under 50% inhibition at 10 µM
[2] = DRUGMATRIX: Phorbol Ester radioligand binding (ligand: [3H] PDBu); format: cell membranes, Mus musculus, ICR, Brain, Membrane; settings: Not Active = under 50% inhibition at 10 µM
[3] = DRUGMATRIX: Purinergic P2X radioligand binding (ligand: [3H] alpha, beta-Methylene-ATP); format: cell membranes, Oryctolagus cuniculus, New Zealand albino, Urinary bladder, Membrane; settings: Not Active = under 50% inhibition at 10 µM
[4] = molecular target: Acetylcholinesterase (Homo sapiens, UniProt P22303); assay: DRUGMATRIX: Acetylcholinesterase enzyme inhibition (substrate: acetylthiocholine); format: cell-based, HEK293; settings: Not Active = under 50% inhibition at 10 µM
Chain of Acetylcholinesterase (P22303 whole entry): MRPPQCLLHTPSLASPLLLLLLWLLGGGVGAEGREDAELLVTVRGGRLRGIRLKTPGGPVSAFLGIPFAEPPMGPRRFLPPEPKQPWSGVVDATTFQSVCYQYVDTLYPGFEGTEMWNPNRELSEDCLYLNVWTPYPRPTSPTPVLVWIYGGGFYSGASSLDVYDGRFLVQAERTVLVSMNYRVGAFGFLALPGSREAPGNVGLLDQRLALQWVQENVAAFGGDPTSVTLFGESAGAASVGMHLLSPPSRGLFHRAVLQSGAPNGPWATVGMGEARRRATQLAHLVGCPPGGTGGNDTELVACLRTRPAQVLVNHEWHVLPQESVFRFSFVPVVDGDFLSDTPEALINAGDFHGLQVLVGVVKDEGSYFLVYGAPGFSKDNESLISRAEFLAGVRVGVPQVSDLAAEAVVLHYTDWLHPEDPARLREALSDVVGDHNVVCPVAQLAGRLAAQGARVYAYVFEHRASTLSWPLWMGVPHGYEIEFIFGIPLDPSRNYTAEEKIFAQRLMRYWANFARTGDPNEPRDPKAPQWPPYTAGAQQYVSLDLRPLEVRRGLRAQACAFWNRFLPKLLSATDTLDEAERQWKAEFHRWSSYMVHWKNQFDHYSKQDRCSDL

[5] = molecular target: Cytochrome P450 2C19 (Homo sapiens, UniProt P33261); settings: bti-tn-5b1-4; also: in other assays of this panel Not Active means under 50% inhibition at 10 µM
Chain of Cytochrome P450 2C19 (P33261 whole entry): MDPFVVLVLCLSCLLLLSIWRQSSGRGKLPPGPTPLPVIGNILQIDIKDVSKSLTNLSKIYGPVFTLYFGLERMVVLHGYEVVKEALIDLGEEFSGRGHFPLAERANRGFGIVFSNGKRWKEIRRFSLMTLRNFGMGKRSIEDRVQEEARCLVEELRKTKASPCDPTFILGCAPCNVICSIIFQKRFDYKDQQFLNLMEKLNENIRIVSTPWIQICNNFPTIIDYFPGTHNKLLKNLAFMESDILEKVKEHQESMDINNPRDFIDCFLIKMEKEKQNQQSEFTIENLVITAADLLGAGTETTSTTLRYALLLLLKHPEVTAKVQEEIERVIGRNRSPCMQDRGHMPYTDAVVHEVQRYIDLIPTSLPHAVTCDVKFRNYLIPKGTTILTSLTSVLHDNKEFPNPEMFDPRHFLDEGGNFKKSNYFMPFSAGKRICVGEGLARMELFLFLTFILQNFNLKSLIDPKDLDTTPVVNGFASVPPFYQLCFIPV

[6] = molecular target: Beta-1 adrenergic receptor (Homo sapiens, UniProt P08588); assay: DRUGMATRIX: Adrenergic beta1 radioligand binding (ligand: [125I] Cyanopindolol); format: cell membranes, CHO-K1, Membrane; settings: cho-k1; Not Active = under 50% inhibition at 10 µM
Chain of Beta-1 adrenergic receptor (P08588 whole entry): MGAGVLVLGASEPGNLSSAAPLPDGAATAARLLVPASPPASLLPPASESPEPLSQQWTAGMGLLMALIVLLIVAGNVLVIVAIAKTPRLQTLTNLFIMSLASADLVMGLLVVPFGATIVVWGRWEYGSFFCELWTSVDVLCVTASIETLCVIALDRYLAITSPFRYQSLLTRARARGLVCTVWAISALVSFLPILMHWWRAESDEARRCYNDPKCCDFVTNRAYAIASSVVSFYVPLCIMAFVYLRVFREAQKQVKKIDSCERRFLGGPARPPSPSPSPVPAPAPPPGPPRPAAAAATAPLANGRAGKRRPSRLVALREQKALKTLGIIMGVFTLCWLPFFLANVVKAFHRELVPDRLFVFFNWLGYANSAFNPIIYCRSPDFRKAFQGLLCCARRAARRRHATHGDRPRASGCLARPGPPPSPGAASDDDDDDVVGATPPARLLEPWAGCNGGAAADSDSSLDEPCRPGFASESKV

Chain of Histamine H2 receptor (P25021 whole entry): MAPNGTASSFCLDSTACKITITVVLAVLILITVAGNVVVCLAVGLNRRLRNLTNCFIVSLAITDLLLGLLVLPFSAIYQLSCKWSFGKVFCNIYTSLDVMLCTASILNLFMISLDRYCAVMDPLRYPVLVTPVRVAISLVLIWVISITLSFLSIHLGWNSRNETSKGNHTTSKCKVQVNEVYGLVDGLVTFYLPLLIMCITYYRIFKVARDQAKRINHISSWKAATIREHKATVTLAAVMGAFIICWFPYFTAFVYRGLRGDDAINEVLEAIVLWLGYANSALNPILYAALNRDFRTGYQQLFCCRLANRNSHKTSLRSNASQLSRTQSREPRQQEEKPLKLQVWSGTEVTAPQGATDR

For CC(C)CN(C[C@@H](O)[C@H](Cc1ccccc1)NC(=O)O[C@H]1CCOC1)S(=O)(=O)c1ccc(N)cc1, the IC50 ([1]; cho-k1) was “Not Active”, the IC50 [2] was “Not Active” and the Ki [2] was “Not Active”. For the same compound, the IC50 [3] was “Not Active”, the Ki [3] was “Not Active” and the IC50 ([4]; hek293) was “Not Active”. The IC50 [5] was “Not Active”, the Ki [5] was “Not Active” and the IC50 [6] was “Not Active”.
With c1ccc(Nc2ccc(Nc3ccccc3)cc2)cc1 the IC50 ([1]; cho-k1) was “Not Active”, the IC50 [2] was “Not Active” and the Ki [2] was “Not Active”. For the same compound, the IC50 [3] was “Not Active”, the Ki [3] was “Not Active” and the IC50 ([4]; hek293) was “Not Active”. For the same compound, the IC50 [5] was “Not Active”, the Ki [5] was “Not Active” and the IC50 [6] was “Not Active”.
In the case of COc1cc2c3cc1Oc1cc(ccc1O)C[C@@H]1c4c(cc(OC)c(O)c4Oc4ccc(cc4)C[C@@H]3N(C)CC2)CC[N+]1(C)C.[Cl-], the IC50 ([1]; cho-k1) is reported as “Not Active”, the IC50 [2] is reported as “Not Active” and the Ki [2] is reported as “Not Active”. For the same compound, the IC50 [3] was “Not Active”, the Ki [3] was “Not Active” and the IC50 ([4]; hek293) was “Not Active”. The IC50 [5] was “Not Active”, the Ki [5] was “Not Active” and the IC50 [6] was “Not Active”.
With NC(=O)N1c2ccccc2CCc2ccccc21 the IC50 ([1]; cho-k1) was “Not Active”, the IC50 [2] was “Not Active” and the Ki [2] was “Not Active”. The IC50 [3] was “Not Active”, the Ki [3] was “Not Active” and the IC50 ([4]; hek293) was “Not Active”. For the same compound, the IC50 [5] was “Not Active”, the Ki [5] was “Not Active” and the IC50 [6] was “Not Active”.
In the case of O=C1CC[C@@H](N2C(=O)c3ccccc3C2=O)C(=O)N1, the IC50 ([1]; cho-k1) is reported as “Not Active”, the IC50 [2] is reported as “Not Active” and the Ki [2] is reported as “Not Active”. For the same compound, the IC50 [3] was “Not Active”, the Ki [3] was “Not Active” and the IC50 ([4]; hek293) was “Not Active”. The IC50 [5] was “Not Active”, the Ki [5] was “Not Active” and the IC50 [6] was “Not Active”.
With Cc1onc(O)c1CC(N)C(=O)O (racemic) [(R,S)-AMPA] the IC50 ([1]; cho-k1) was “Not Active”, the IC50 [2] was “Not Active” and the Ki [2] was “Not Active”. The IC50 [3] was “Not Active”, the Ki [3] was “Not Active” and the IC50 ([4]; hek293) was “Not Active”. For the same compound, the IC50 [5] was “Not Active”, the Ki [5] was “Not Active” and the IC50 [6] was “Not Active”.
In the case of Cc1ccc2cc3c(ccc4ccccc43)c3c2c1CC3 [3-METHYLCHOLANTHRENE], the IC50 ([1]; cho-k1) is reported as “Not Active”, the IC50 [2] is reported as “Not Active” and the Ki [2] is reported as “Not Active”. For the same compound, the IC50 [3] was “Not Active”, the Ki [3] was “Not Active” and the IC50 ([4]; read-out: IC50) was 22.7 µM. The IC50 [5] was “Not Active”, the Ki [5] was “Not Active” and the IC50 [6] was “Not Active”.
With CN(C)c1nc(N(C)C)nc(N(C)C)n1 [ALTRETAMINE] the IC50 ([1]; cho-k1) was “Not Active”, the IC50 [2] was “Not Active” and the Ki [2] was “Not Active”. For the same compound, the IC50 [3] was “Not Active”, the Ki [3] was “Not Active” and the IC50 ([4]; hek293) was “Not Active”. The IC50 [6] was “Not Active”.
In the case of Nc1c(Br)cc(Br)cc1CN[C@H]1CC[C@H](O)CC1 [AMBROXOL], the IC50 ([1]; cho-k1) is reported as “Not Active”, the IC50 [2] is reported as “Not Active” and the Ki [2] is reported as “Not Active”. The IC50 [3] was “Not Active”, the Ki [3] was “Not Active” and the IC50 ([4]; hek293) was “Not Active”. For the same compound, the IC50 [6] was “Not Active”.
For Nc1ncn([C@@H]2O[C@H](CO)[C@@H](O)[C@H]2O)c(=O)n1 [AZACITIDINE], the IC50 ([1]; cho-k1) was “Not Active”, the IC50 [2] was “Not Active” and the Ki [2] was “Not Active”. For the same compound, the IC50 [3] was “Not Active”, the Ki [3] was “Not Active” and the IC50 ([4]; hek293) was “Not Active”. The IC50 [6] was “Not Active”.
In the case of CNCCc1ccccn1 [BETAHISTINE], the IC50 ([1]; cho-k1) is reported as “Not Active”, the IC50 [2] is reported as “Not Active” and the Ki [2] is reported as “Not Active”. For the same compound, the IC50 [3] was “Not Active”, the Ki [3] was “Not Active” and the IC50 ([4]; hek293) was “Not Active”. For the same compound, the IC50 [5] was “Not Active” and the Ki [5] was “Not Active”.
For CC(NC(C)(C)C)C(=O)c1cccc(Cl)c1 (centres undefined) [BUPROPION], the IC50 ([1]; cho-k1) was “Not Active”, the IC50 [2] was “Not Active” and the Ki [2] was “Not Active”. For the same compound, the IC50 [3] was “Not Active”, the Ki [3] was “Not Active” and the IC50 ([4]; hek293) was “Not Active”. For the same compound, the IC50 [6] was “Not Active”.
With CN(C)CCCN1c2ccccc2Sc2ccc(Cl)cc21 [CHLORPROMAZINE] the IC50 [2] was “Not Active”, the Ki [2] was “Not Active” and the IC50 [3] was “Not Active”. The Ki [3] was “Not Active”, the IC50 ([4]; hek293) was “Not Active” and the IC50 [6] was “Not Active”.
For C[C@H](CCC(=O)O)[C@H]1CC[C@H]2[C@@H]3[C@H](O)C[C@@H]4C[C@H](O)CC[C@]4(C)[C@H]3C[C@H](O)[C@]12C [CHOLIC ACID], the IC50 ([1]; cho-k1) was “Not Active”, the IC50 [2] was “Not Active” and the Ki [2] was “Not Active”. The IC50 [3] was “Not Active”, the Ki [3] was “Not Active” and the IC50 ([4]; hek293) was “Not Active”. For the same compound, the IC50 [6] was “Not Active”.
In the case of CC(C)(Oc1ccc(Cl)cc1)C(=O)O [CLOFIBRIC ACID], the IC50 ([1]; cho-k1) is reported as “Not Active”, the IC50 [2] is reported as “Not Active” and the Ki [2] is reported as “Not Active”. For the same compound, the IC50 [3] was “Not Active”, the Ki [3] was “Not Active” and the IC50 ([4]; hek293) was “Not Active”. For the same compound, the IC50 [6] was “Not Active”.
With CNCCCN1c2ccccc2CCc2ccccc21 [DESIPRAMINE] the IC50 ([1]; cho-k1) was “Not Active”, the IC50 [2] was “Not Active” and the Ki [2] was “Not Active”. The IC50 [3] was “Not Active”, the Ki [3] was “Not Active” and the IC50 ([4]; hek293) was “Not Active”. The IC50 [5] was “Not Active” and the Ki [5] was “Not Active”.
In the case of CC(C)[C@@]1(NC(=O)[C@@H]2C[C@@H]3c4cccc5[nH]cc(c45)C[C@H]3N(C)C2)O[C@@]2(O)[C@@H]3CCCN3C(=O)[C@H](Cc3ccccc3)N2C1=O.CS(=O)(=O)O [DIHYDROERGOCRISTINE MESYLATE], the IC50 ([1]; cho-k1) is reported as “Not Active”, the IC50 [2] is reported as “Not Active” and the Ki [2] is reported as “Not Active”. The IC50 [3] was “Not Active”, the Ki [3] was “Not Active” and the IC50 ([4]; hek293) was “Not Active”. The IC50 [6] was “Not Active”.
With COc1cc2nc(N3CCN(C(=O)C4COc5ccccc5O4)CC3)nc(N)c2cc1OC (centres undefined) [DOXAZOSIN] the IC50 ([1]; cho-k1) was “Not Active”, the IC50 [2] was “Not Active” and the Ki [2] was “Not Active”. For the same compound, the IC50 [3] was “Not Active”, the Ki [3] was “Not Active” and the IC50 ([4]; hek293) was “Not Active”. For the same compound, the IC50 [5] was “Not Active” and the Ki [5] was “Not Active”.
In the case of C[C@]12CC[C@@H]3c4ccc(O)cc4CC[C@H]3[C@@H]1CCC2=O [ESTRONE], the IC50 ([1]; cho-k1) is reported as “Not Active”, the IC50 [2] is reported as “Not Active” and the Ki [2] is reported as “Not Active”. The IC50 [3] was “Not Active”, the Ki [3] was “Not Active” and the IC50 ([4]; hek293) was “Not Active”. For the same compound, the IC50 [6] was “Not Active”.
With N=C(N)NCCN1CCCCCCC1 [GUANETHIDINE] the IC50 ([1]; cho-k1) was “Not Active”, the IC50 [2] was “Not Active” and the Ki [2] was “Not Active”. For the same compound, the IC50 [3] was “Not Active”, the Ki [3] was “Not Active” and the IC50 ([4]; hek293) was “Not Active”. The IC50 [6] was “Not Active”.
In the case of Nc1nc(N)nc(-c2cc(Cl)ccc2Cl)n1.O=C(O)/C=C\C(=O)O [IRSOGLADINE MALEATE], the IC50 ([1]; cho-k1) is reported as “Not Active”, the IC50 [2] is reported as “Not Active” and the Ki [2] is reported as “Not Active”. The IC50 [3] was “Not Active”, the Ki [3] was “Not Active” and the IC50 ([4]; hek293) was “Not Active”. The IC50 [5] was “Not Active” and the Ki [5] was “Not Active”.
In the case of COCCc1ccc(OCC(O)CNC(C)C)cc1 (centres undefined) [METOPROLOL], the IC50 ([1]; cho-k1) is reported as “Not Active”, the IC50 [2] is reported as “Not Active” and the Ki [2] is reported as “Not Active”. The IC50 [3] was “Not Active”, the Ki [3] was “Not Active” and the IC50 ([4]; hek293) was “Not Active”.
For CCn1cc(C(=O)O)c(=O)c2cc(F)c(N3CCNCC3)cc21 [NORFLOXACIN], the IC50 ([1]; cho-k1) was “Not Active”, the IC50 [2] was “Not Active” and the Ki [2] was “Not Active”. For the same compound, the IC50 [3] was “Not Active”, the Ki [3] was “Not Active” and the IC50 ([4]; hek293) was “Not Active”. The IC50 [6] was “Not Active”.
For CC1(C)S[C@@H]2[C@H](NC(=O)Cc3ccccc3)C(=O)N2[C@H]1C(=O)O [PENICILLIN G], the IC50 ([1]; cho-k1) was “Not Active”, the IC50 [2] was “Not Active” and the Ki [2] was “Not Active”. For the same compound, the IC50 [3] was “Not Active”, the Ki [3] was “Not Active” and the IC50 ([4]; hek293) was “Not Active”. For the same compound, the IC50 [6] was “Not Active”.
With CCOc1ccc(NC(C)=O)cc1 [PHENACETIN] the IC50 ([1]; cho-k1) was “Not Active”, the IC50 [2] was “Not Active” and the Ki [2] was “Not Active”. For the same compound, the IC50 [3] was “Not Active”, the Ki [3] was “Not Active” and the IC50 ([4]; hek293) was “Not Active”. The IC50 [6] was “Not Active”.
With CN(C)CCCN1c2ccccc2Sc2ccccc21 [PROMAZINE] the IC50 ([1]; read-out: IC50) was 2.86 µM, the Ki ([1]; read-out: Ki) was 2.81 µM and the IC50 [2] was “Not Active”. For the same compound, the Ki [2] was “Not Active”, the IC50 [3] was “Not Active” and the Ki [3] was “Not Active”. For the same compound, the IC50 ([4]; hek293) was “Not Active” and the IC50 [6] was “Not Active”.
